# Measurements as given in patent US20230146455A1, “TREATMENT OF INFLAMMATORY DISEASES WITH PEPTIDES AND PHARMACEUTICAL COMPOSITIONS” (Yuyu Pharma, Inc., priority 2020, published 2023).
# Several values for one entry are separate records, joined by “and”; a condition that tells them apart may be missing. Equal entries are not always repeated. Where a SMILES comes first, the peptide text is derived from it. [ ]: non-standard residue; d: D form. Hyp = O=C(O)[C@@H]1C[C@@H](O)CN1
# Tested on: CCL4/MIP-1 beta
# Test: Example 9 Luminex, LPS hPBMCs: CCL4/MIP-1 beta
# Assay type: cell-based, human
# Settings: for MFI (Bead name: CCL4/MIP-1 beta): dilution 10
# Description: Treatment Human PBMCs were pretreated with YY-101, YDE-011 and YDE-043 or reference compound; Xiidra® at various concentration (ranging from 1 nM to 100 uM) for 2 h before stimulation. An equal volume of 0.5% DMSO was used as a vehicle control. Then, the cells were treated with LPS at 5 ug/ml. The supernatants from treated cells were harvested at 24 h and placed in a 96 well for Luminex cytokine & chemokine profiling using a Luminex 200 multiplex assay (Luminex; R&D system, USA).
# The main study arm with triplicate wells per group in a 24-well plate: • 1. Blank • 2. PBMC: 0.5% DMSO • 3. PBMC+LPS (5 ug/ml) • 4. PBMC+YY-101 100 uM • 5. PBMC+YY-101 10 uM • 6. PBMC+YY-101 1 uM • 7. PBMC+YY-101 0.1 uM • 8. PBMC+YY-101 0.01 uM • 9. PBMC+LPS (5 ug/ml)+Xiidra®100 uM • 10. PBMC+LPS (5 ug/ml)+Xiidra® 10 uM • 11. PBMC+LPS (5 ug/ml)+Xiidra® 1 uM • 12. PBMC+LPS (5 ug/ml)+Xiidra®0.1 uM • 13. PBMC+LPS (5 ug/ml)+Xiidra®0.01 uM • 14. PBMC+LPS (5 ug/ml)+Xiidra®0.001 uM • 15. PBMC+LPS (5 ug/ml)+YY-101 100 uM • 16. PBMC+LPS (5 ug/ml)+YY-101 10 uM • 17. PBMC+LPS (5 ug/ml)+YY-101 1 uM • 18. PBMC+LPS (5 ug/ml)+YY-101 0.1 uM • 19. PBMC+LPS (5 ug/ml)+YY-101 0.01 uM • 20. PBMC+LPS (5 ug/ml)+YY-101 0.001 uM • 21. PBMC+LPS (5 ug/ml)+YDE-011 100 uM • 22. PBMC+LPS (5 ug/ml)+YDE-011 10 uM • 23. PBMC+LPS (5 ug/ml)+YDE-011 1 uM • 24. PBMC+LPS (5 ug/ml)+YDE-011 0.1 uM • 25. PBMC+LPS (5 ug/ml)+YDE-011 0.01 uM • 26. PBMC+LPS (5 ug/ml)+YDE-011 0.001 uM • 27. PBMC+LPS (5 ug/ml)+YDE-043 100 uM • 28. PBMC+LPS (5 ug/ml)+YDE-043 10 uM • 29. PBMC+LPS (5 ug/ml)+YDE-043 1 uM • 30. PBMC+LPS (5 ug/ml)+YDE-043 0.1 uM • 31. PBMC+LPS (5 ug/ml)+YDE-043 0.01 uM • 32. PBMC+LPS (5 ug/ml)+YDE-043 0.001 uM
# Multiplex assay was used to measure 30 cytokines and chemokines. The 1:2, 1:10 and 1:200 diluted cell supernatant and serial dilution of the standard were dispensed into a 96 well plate at 50 ul/well. Then, the pre-mixed cocktail of antibody-coated magnetic beads was dispensed at 50 ul/well and incubated at room temperature for 2 h in a horizontal orbital microplate shaker at 800±500 rpm. The beads were washed using a magnetic device to prevent loss. The biotin-antibody was dispensed in 50 ul of each well and incubated at room temperature for 1 h in a shaker at 800±500 rpm. After washing, streptavidin-PE was added at 50 ul/well and incubated at room temperature for 30 min in a shaker under the same conditions. Finally, after washing, wash buffer (100 ul/well) was added to the plate and incubated in a shaker for 2 min. The Luminex™ 200 setting were set according to the manufacturer's protocol. The data was calculated with a standard five-parameter logistic nonlinear regression analysis of the data (xPonent software 4.2, USA). The levels of cytokine/chemokine are normalized to the live cell counts (1×10^5 cells/mL) and presented as concentrations per mL (pg/mL or ng/mL).
# [1] = PBMC + LPS(5 ug/ml), test article 0.01 uM, single replicates
# [2] = PBMC + LPS(5 ug/ml), test article 0.1 uM, Mean
# [3] = PBMC + LPS(5 ug/ml), test article 0.1 uM, single replicates
# [4] = PBMC + LPS(5 ug/ml), test article 1 uM, Mean
# [5] = PBMC + LPS(5 ug/ml), test article 1 uM, single replicates
# [6] = PBMC + LPS(5 ug/ml), test article 10 uM, Mean
# [7] = PBMC + LPS(5 ug/ml), test article 10 uM, single replicates
# [8] = PBMC + LPS(5 ug/ml), test article 100 uM, Mean
# [9] = PBMC + LPS(5 ug/ml), test article 100 uM, single replicates
# [10] = PBMC without LPS, test article 0.01 uM, Mean
# [11] = PBMC without LPS, test article 0.01 uM, single replicates
# [12] = PBMC without LPS, test article 0.1 uM, Mean
# [13] = PBMC without LPS, test article 0.1 uM, single replicates
# [14] = PBMC without LPS, test article 1 uM, Mean
# [15] = PBMC without LPS, test article 1 uM, single replicates
# [16] = PBMC without LPS, test article 10 uM, Mean
# [17] = PBMC without LPS, test article 10 uM, single replicates
# [18] = PBMC without LPS, test article 100 uM, Mean
# [19] = PBMC without LPS, test article 100 uM, single replicates
smiles,measurement,setting,value
CC(C)C[C@H](NC(=O)CNC(=O)[C@H](CC(=O)O)NC(=O)[C@H](CCC(N)=O)NC(=O)CNC(=O)[C@@H]1C[C@@H](O)CN1)C(=O)N[C@@H](C)C(=O)NCC(=O)N1CCC[C@H]1C(=O)N[C@@H](CCCCN)C(=O)O [YY-101] (H-[Hyp]GQDGLAGPK-OH; N-terminus and C-terminus assumed),Concentration (CCL4/MIP-1 beta),[1],15520.6 pg/mL and 15288.8 pg/mL and 14700.8 pg/mL
same,conc/live cell (CCL4/MIP-1 beta),[1],2425.1 pg/10^5 and 2548.1 pg/10^5 and 2410.0 pg/10^5
same,Concentration (CCL4/MIP-1 beta),[2],15088.0 pg/mL
same,conc/live cell (CCL4/MIP-1 beta),[2],2590.9 pg/10^5
same,MFI (Bead name: CCL4/MIP-1 beta),[2],584.0
same,MFI (Bead name: CCL4/MIP-1 beta),[3],576.0 and 592.0 and 584.0
same,Concentration (CCL4/MIP-1 beta),[3],14959.4 pg/mL and 15216.6 pg/mL and 15088.1 pg/mL
same,conc/live cell (CCL4/MIP-1 beta),[3],2412.8 pg/10^5 and 2926.3 pg/10^5 and 2433.6 pg/10^5
same,Concentration (CCL4/MIP-1 beta),[4],14794.1 pg/mL
same,conc/live cell (CCL4/MIP-1 beta),[4],2273.3 pg/10^5
same,MFI (Bead name: CCL4/MIP-1 beta),[4],565.8
same,MFI (Bead name: CCL4/MIP-1 beta),[5],594.0 and 556.5 and 547.0
same,Concentration (CCL4/MIP-1 beta),[5],15248.7 pg/mL and 14644.0 pg/mL and 14489.7 pg/mL
same,conc/live cell (CCL4/MIP-1 beta),[5],2420.4 pg/10^5 and 2062.5 pg/10^5 and 2337.0 pg/10^5
same,Concentration (CCL4/MIP-1 beta),[6],15474.9 pg/mL
same,conc/live cell (CCL4/MIP-1 beta),[6],2351.1 pg/10^5
same,MFI (Bead name: CCL4/MIP-1 beta),[6],608.3
same,MFI (Bead name: CCL4/MIP-1 beta),[7],614.0 and 651.0 and 560.0
same,Concentration (CCL4/MIP-1 beta),[7],15568.4 pg/mL and 16155.4 pg/mL and 14700.8 pg/mL
same,conc/live cell (CCL4/MIP-1 beta),[7],2594.7 pg/10^5 and 2524.3 pg/10^5 and 1934.3 pg/10^5
same,Concentration (CCL4/MIP-1 beta),[8],13712.9 pg/mL
same,conc/live cell (CCL4/MIP-1 beta),[8],2374.0 pg/10^5
same,MFI (Bead name: CCL4/MIP-1 beta),[8],499.8
same,MFI (Bead name: CCL4/MIP-1 beta),[9],537.0 and 474.5 and 488.0
same,Concentration (CCL4/MIP-1 beta),[9],14326.7 pg/mL and 13293.2 pg/mL and 13518.7 pg/mL
same,conc/live cell (CCL4/MIP-1 beta),[9],2274.1 pg/10^5 and 2144.1 pg/10^5 and 2703.7 pg/10^5
same,conc/live cell (CCL4/MIP-1 beta),[10],0.0 pg/10^5
same,MFI (Bead name: CCL4/MIP-1 beta),[10],0.0
same,MFI (Bead name: CCL4/MIP-1 beta),[11],0.0
same,conc/live cell (CCL4/MIP-1 beta),[11],0.0 pg/10^5
same,conc/live cell (CCL4/MIP-1 beta),[12],0.0 pg/10^5
same,MFI (Bead name: CCL4/MIP-1 beta),[12],0.0
same,MFI (Bead name: CCL4/MIP-1 beta),[13],0.0
same,conc/live cell (CCL4/MIP-1 beta),[13],0.0 pg/10^5
same,conc/live cell (CCL4/MIP-1 beta),[14],0.0 pg/10^5
same,MFI (Bead name: CCL4/MIP-1 beta),[14],−0.8
same,MFI (Bead name: CCL4/MIP-1 beta),[15],−1.0 and −0.5
same,conc/live cell (CCL4/MIP-1 beta),[15],0.0 pg/10^5
same,Concentration (CCL4/MIP-1 beta),[16],1948.5 pg/mL
same,conc/live cell (CCL4/MIP-1 beta),[16],152.2 pg/10^5
same,MFI (Bead name: CCL4/MIP-1 beta),[16],5.5
same,MFI (Bead name: CCL4/MIP-1 beta),[17],10.0 and 1.0
same,Concentration (CCL4/MIP-1 beta),[17],1948.5 pg/mL
same,conc/live cell (CCL4/MIP-1 beta),[17],304.4 pg/10^5 and 0.0 pg/10^5
same,Concentration (CCL4/MIP-1 beta),[18],1360.7 pg/mL
same,conc/live cell (CCL4/MIP-1 beta),[18],207.4 pg/10^5
same,MFI (Bead name: CCL4/MIP-1 beta),[18],6.5
same,MFI (Bead name: CCL4/MIP-1 beta),[19],10.0 and 3.0
same,Concentration (CCL4/MIP-1 beta),[19],1948.5 pg/mL and 772.9 pg/mL
same,conc/live cell (CCL4/MIP-1 beta),[19],304.4 pg/10^5 and 110.4 pg/10^5
